In patent EP3552605A1 (priority 2018, dated 2019):
Entries after “also recorded” stand apart in the source; their conditions may differ. Like-named read-outs stand apart in the source and are kept apart here.

Columns and labels:
[1] = p.o., cited from earlier work
[2] = cited from earlier work
[3] = dose not stated; cited from earlier work
senescent ARPE-1 cells = assay: toxicity towards senescent ARPE-1 cells (GIEMSA staining, microscopy); assay type: cell-based, human; details: 10 µM, 48 hours; senescence induced by 200nM aphidicolin for three weeks; Figure 1
Description: (§1) hTERT RPE-1 human retinal epithelial cell line was obtained from ATTC. Cells were grown in DMEM medium (Sigma Aldrich) supplemented with 10% fetal bovine serum (FBS) and antibiotics (penicillin-streptomycin). MRC-5 human lung fibroblast cell line was obtained from ATTC. Cells were grown in DMEM (Sigma Aldrich) supplemented with 10% FBS and antibiotics (penicillin-streptomycin).
(§2) In human ARPE-1 human epithelial cells, senescence response - manifested by loss of proliferation, typical morphological changes and Senescence Associated Beta-galactosidase positivity - was induced by exposition to replication stress for prolonged time period. The induction involved 200nM aphidicolin continual treatment for three weeks. The senescent cells have been exposed to various doses of MCOPPB dissolved in water for 48 hours, the dose range spanned 100 nM - 50 µM. The number of surviving cells was evaluated immediately after the treatment either using GIMSA staining and microscopy-based evaluation of surviving cells and compared to parental exponentially growing ARPE-1 cells, which were exposed to MCOPPB as well. Control samples of senescent and parental cells, without MCOPPB treatment, were assessed, too. […]

[4] = tested on: parental (normal healthy) ARPE-1 cells; assay: toxicity towards parental ARPE-1 cells (GIEMSA staining, microscopy); assay type: cell-based, human; details: 10 µM, 48 hours; Figure 1
Description: as §1, §2

senescent MRC5 cells = assay: toxicity towards senescent MRC5 cells (GIEMSA staining, microscopy); assay type: cell-based, human
Description: as §1
In human MRC-5 fibroblasts cells, senescence response - manifested by loss of proliferation, typical morphological changes and Senescence Associated Beta-galactosidase positivity - was induced by exposition to gamma radiation. The induction involved a single irradiation, total dose 15 Gy using Xstrahl RS 225 M RTG device set to 200KV 15mA (dose 3.8Gy/min). […] The number of surviving cells was evaluated immediately after the treatment either using GIMSA staining and microscopy-based evaluation of surviving cells and compared to parental exponentially growing MRC-5 cells.

[5] = tolerance of long term application in vivo; design: species or system mice (C57B1/6 strain); details: five weeks, regime 5 + 2, female mice aged 42 weeks
Description: Female mice (C57B1/6 strain) at the age of 42 weeks were treated by intraperitoneal application of MCOPPB (10 mg/kg and 20 mg/kg) dissolved in phosphate buffer or by the buffer alone (vehicle) for five weeks in the regime 5 + 2 (5 days with the treatment, two days without) and followed for another two weeks. The weight and another physiological factors reflecting overall fitness were monitored.

[6] = tested on: senescent cells (p16 positive cells); assay: elimination of senescent cells in p16 luciferase reporter mouse; assay type: in vivo
Description: Reporter GMO mouse with integrated luciferase reporter under p16 promoter allows monitoring of aging on the molecular level by an increase of luminescence signal due to the accumulation of senescent cells (this mouse model is described in details in: Cell. 2013 Jan 17;152(1-2):340-51). Application of senolytics targets the p16 positive cells and leads to decrease in the luminescent signal. Naturally aged reporter mice were treated by the MCOPPB compound and luminescence signal level was measured over time.

mu opioid receptor = mu opioid receptor (Homo sapiens, UniProt P35372); details: cited from earlier work
kappa opioid receptor = kappa opioid receptor (Homo sapiens, UniProt P41145); details: cited from earlier work
delta opioid receptor = delta opioid receptor (Homo sapiens, UniProt P41143); details: cited from earlier work
[7] = target: T1, NOP receptor in the mouse brain (Mus musculus, UniProt P35377); details: 10 mg/kg, p.o.; ex vivo; cited from earlier work
T1 construct: from tissue; host or cells: mouse brain

[8] = animal studies, cited from earlier work
[9] = oral dose of 10 mg/kg; cited from earlier work

T1 sequence (P35377 whole entry): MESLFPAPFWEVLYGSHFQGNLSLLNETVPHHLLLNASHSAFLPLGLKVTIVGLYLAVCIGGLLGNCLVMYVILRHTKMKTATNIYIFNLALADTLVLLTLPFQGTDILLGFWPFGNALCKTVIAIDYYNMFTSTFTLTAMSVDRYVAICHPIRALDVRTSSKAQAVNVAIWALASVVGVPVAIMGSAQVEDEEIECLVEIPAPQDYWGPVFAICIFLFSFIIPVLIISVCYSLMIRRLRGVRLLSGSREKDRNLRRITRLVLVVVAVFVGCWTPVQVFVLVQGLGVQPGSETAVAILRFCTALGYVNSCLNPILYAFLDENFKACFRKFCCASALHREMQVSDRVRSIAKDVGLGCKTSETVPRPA
Sequence of kappa opioid receptor (P41145 whole entry): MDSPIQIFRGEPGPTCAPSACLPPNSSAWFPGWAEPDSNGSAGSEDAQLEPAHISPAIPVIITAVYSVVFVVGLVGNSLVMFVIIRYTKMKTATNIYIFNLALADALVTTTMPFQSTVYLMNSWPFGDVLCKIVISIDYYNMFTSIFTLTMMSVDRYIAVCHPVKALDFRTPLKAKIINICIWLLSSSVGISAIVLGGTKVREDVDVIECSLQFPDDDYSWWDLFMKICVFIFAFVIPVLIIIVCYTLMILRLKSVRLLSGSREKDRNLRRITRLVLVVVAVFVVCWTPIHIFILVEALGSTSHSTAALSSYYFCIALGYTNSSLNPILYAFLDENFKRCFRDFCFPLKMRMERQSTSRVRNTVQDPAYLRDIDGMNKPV
Sequence of mu opioid receptor (P35372 whole entry, species assumed): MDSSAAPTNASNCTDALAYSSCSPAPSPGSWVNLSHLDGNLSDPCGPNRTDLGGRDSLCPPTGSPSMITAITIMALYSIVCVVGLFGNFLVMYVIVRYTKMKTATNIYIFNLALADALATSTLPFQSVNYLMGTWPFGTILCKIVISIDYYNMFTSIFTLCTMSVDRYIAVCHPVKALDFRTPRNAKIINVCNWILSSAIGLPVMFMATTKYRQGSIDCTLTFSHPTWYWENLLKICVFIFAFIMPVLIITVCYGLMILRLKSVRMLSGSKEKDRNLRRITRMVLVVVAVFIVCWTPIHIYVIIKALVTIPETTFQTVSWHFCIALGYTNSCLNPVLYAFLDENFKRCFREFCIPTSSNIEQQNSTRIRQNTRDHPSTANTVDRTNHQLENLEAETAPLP
Sequence of delta opioid receptor (P41143 whole entry): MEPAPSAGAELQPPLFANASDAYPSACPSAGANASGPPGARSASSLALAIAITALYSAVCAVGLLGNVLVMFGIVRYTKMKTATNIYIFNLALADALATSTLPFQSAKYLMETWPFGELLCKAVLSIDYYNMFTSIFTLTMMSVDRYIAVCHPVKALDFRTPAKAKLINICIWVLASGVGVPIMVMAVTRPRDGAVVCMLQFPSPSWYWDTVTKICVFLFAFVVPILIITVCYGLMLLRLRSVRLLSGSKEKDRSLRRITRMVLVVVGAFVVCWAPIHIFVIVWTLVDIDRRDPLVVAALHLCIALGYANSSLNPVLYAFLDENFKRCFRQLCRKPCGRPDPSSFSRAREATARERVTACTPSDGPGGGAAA

Which anxiolytic-like effects ([1]; 3 mg/kg) does the source give for `CN1C(=O)CN=C(c2ccccc2)c2cc(Cl)ccc21` [diazepam, reference compound] here?
Its anxiolytic-like effects is “elicited anxiolytic-like effects”.

And the memory ([2]; dose not stated)?
Its memory is “caused memory deficits”.

What about the ethanol-induced hypnosis [3] of the same molecule?
Its ethanol-induced hypnosis is “enhanced ethanol-induced hypnosis”.

What does the source list for `CC1(N2CCC(n3c([C@@H]4CCCNC4)nc4ccccc43)CC2)CCCCCCC1` [MCOPPB, 1-[1-(1-methylcyclooctyl)-4-piperidinyl]-2-[(3R)-3-piperidinyl]-1H-benzimidazole]?
toxicity towards the senescent cells (senescent ARPE-1 cells): cell deterioration and cell loss; also recorded: selective toxicity; adverse effects on the parental cells [4]: no adverse effects; toxicity towards the senescent cells (senescent MRC5 cells; 5 µM, 48 hours, senescence induced by gamma radiation 15 Gy, Figure 3): selective toxicity; toxicity towards the senescent cells (senescent MRC5 cells; 10µM for 48 hours (legend of Figure 3)): cell deterioration and cell loss; tolerance by the animals ([5]; 10 mg/kg intraperitoneal): well tolerated; tolerance by the animals ([5]; 20 mg/kg intraperitoneal): well tolerated; whole body luminescent signals ([6]; 12-16 months old p16 reporter mice, treated for two weeks, versus vehicle, Figure 6): decrease of the luminescence signal; whole body luminescent signal ([6]; 12 month old p16 reporter mouse, after three weeks of treatment, Figure 5): rapid decrease of the signal; luminescence signal ([6]; naturally aged reporter mice, compared to controls, figures 5 and 6): decrease in the luminescence signal; affinity for the mu opioid receptor (mu opioid receptor): moderate affinity; affinity for the kappa opioid receptor (kappa opioid receptor): weak affinity; binding at the delta opioid receptor (delta opioid receptor): negligible binding; signaling through the NOP receptor in the mouse brain [7]: inhibited signaling; anxiolytic-like effects ([1]; 10 mg/kg): elicited anxiolytic-like effects; anxiolytic effect after repeated administration ([1]; 10 mg/kg, repeated administration for 5 days): still effective as an anxiolytic agent; shape of response curve [1]: bell-shaped response curve; sedative side effects ([8]; appear only at much higher doses than the effective anxiolytic dose range): only slight sedative side effects; anxiolytic effects [8]: potent anxiolytic effects; inhibition of memory or motor function [8]: no inhibition of memory or motor function; locomotor activity [9]: did not affect; memory ([2]; oral dose of 10 mg/kg): did not affect
